Earlier results on two molecules are cited in patent US5096924A, “Anticancer antibiotic MI43-37F11 substance” (501 Azidan Hojin Biseibutsu Kagaku Kenkyu Kai, priority 1989, dated 1992).

The data set has as its system cyclic adenosine monophosphate (CAMP) phosphodiesterase. The conditions noted are these: disclosed in Japanese Kokai No. 71076/78; cited from earlier work.

Turning to `COc1c(O)cc2cc(CO)oc(=O)c2c1O` [3-hydroxymethyl-6,8-dihydroxy-7-methoxyisocumarin], the “inhibitory activity to cyclic adenosine monophosphate (CAMP) phosphodiesterase” value was “inhibitory activity”.
In the case of `COc1cc2cc(CO)oc(=O)c2c(O)c1OC` [3-hydroxymethyl-6,7-dimethoxy-8-hydroxyisocumarin], the “inhibitory activity to cyclic adenosine monophosphate (CAMP) phosphodiesterase” value is given as “inhibitory activity”.
